Columns and labels:
[1] = tested on: upland rice (Oryza sp., var.Tebonnet, RICE); test: Post-emerge greenhouse screening, crop safety (phytotoxicity rating); format: in vivo; conditions: 14 days after application
In short: (§1)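 Greenhouse screen. Sowing preceded application by one day (pre-emergence) or 8-21 days (post-emergence). Doses spanned 15 to 1000 g ai/ha in acetone. Score at day 14: 0 no injury, 100 total kill.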

[2] = tested on: soybean (Glycine max L., var. Pella 86, SOY); test: as above; format: in vivo; conditions: 14 days after application
In short: as §1

[3] = tested on: johnsongrass (Sorghum halepense, SORHA); test: Post-emerge greenhouse herbicide activity screening, phytotoxicity rating; format: in vivo; conditions: 14 days after application
In short: as §1

[4] = tested on: green foxtail (Setaria viridis, SETVI); test: as above; format: in vivo
In short: as §1

[5] = tested on: redroot pigweed (Amaranthus retroflexus, AMARE); test: as above; format: in vivo
In short: as §1

[6] = tested on: lambsquarters (Chenopodium album, CHEAL); test: as above; format: in vivo
In short: as §1

[7] = tested on: large crabgrass (Digitaria sanguinalis, DIGSA); test: as above; format: in vivo; conditions: 14 days after application
In short: as §1

[8] = tested on: ivyleaf morningglory (Ipomoea hederacea, IPOHE); test: as above; format: in vivo; conditions: 14 days after application
In short: as §1

[9] = tested on: barnyardgrass (Echinochloa crus-galli, ECHCG); test: as above; format: in vivo; conditions: 14 days after application
In short: as §1

[10] = tested on: sicklepod (Cassia obtusifolia, CASOB); test: as above; format: in vivo
In short: as §1

[11] = tested on: common ragweed (Ambrosia artemisiifolia L., AMBEL); test: as above; format: in vivo
In short: as §1

[12] = tested on: velvetleaf (Abutilon theophrasti, ABUTH); test: as above; format: in vivo; conditions: 14 days after application
In short: as §1

[13] = tested on: field corn (Zea mays L., var. Dekalb 535, CORN); test: Pre-emerge greenhouse screening, crop safety (phytotoxicity rating); format: in vivo; conditions: 14 days after application
In short: as §1

[14] = tested on: upland rice (Oryza sp., var.Tebonnet, RICE); test: as above; format: in vivo; conditions: 14 days after application
In short: as §1

[15] = tested on: soybean (Glycine max L., var. Pella 86, SOY); test: as above; format: in vivo; conditions: 14 days after application
In short: as §1

[16] = Post-emerge greenhouse screening, crop safety / corn selectivity (phytotoxicity rating); format: in vivo, Zea mays L.; conditions: Zea mays (field corn), in vivo, 62.5 g ai/ha
In short: as §1

[17] = tested on: field corn (Zea mays L., var. Dekalb 535, CORN); test: as above; format: in vivo; conditions: 14 days after application
In short: as §1

[18] = tested on: johnsongrass (Sorghum halepense, SORHA); test: Pre-emerge greenhouse herbicide activity screening, phytotoxicity rating; format: in vivo; conditions: 14 days after application
In short: as §1

[19] = tested on: green foxtail (Setaria viridis, SETVI); test: as above; format: in vivo; conditions: 14 days after application
In short: as §1

[20] = tested on: redroot pigweed (Amaranthus retroflexus, AMARE); test: as above; format: in vivo; conditions: 14 days after application
In short: as §1

[21] = tested on: lambsquarters (Chenopodium album, CHEAL); test: as above; format: in vivo; conditions: 14 days after application
In short: as §1

[22] = tested on: large crabgrass (Digitaria sanguinalis, DIGSA); test: as above; format: in vivo; conditions: 14 days after application
In short: as §1

[23] = tested on: ivyleaf morningglory (Ipomoea hederacea, IPOHE); test: as above; format: in vivo; conditions: 14 days after application
In short: as §1

[24] = tested on: barnyardgrass (Echinochloa crus-galli, ECHCG); test: as above; format: in vivo; conditions: 14 days after application
In short: as §1

[25] = tested on: sicklepod (Cassia obtusifolia, CASOB); test: as above; format: in vivo; conditions: 14 days after application
In short: as §1

[26] = tested on: common ragweed (Ambrosia artemisiifolia L., AMBEL); test: as above; format: in vivo; conditions: 14 days after application
In short: as §1

[27] = tested on: velvetleaf (Abutilon theophrasti, ABUTH); test: as above; format: in vivo; conditions: 14 days after application
In short: as §1

[28] = 125 g ai/ha, 14 days after application
[29] = 250 g ai/ha, 14 days after application

Cn1nc(-c2cc(Oc3ncccn3)c(Cl)cc2F)c(Cl)c1[S+]([O-])C(F)F (stereo not drawn) [Compound 5-1]
0: SOY crop damage, phytotoxicity rating (0-100 scale) ([15]; 125 g ai/ha)
99: CASOB phytotoxicity rating (0-100 scale) [10, 28] | IPOHE phytotoxicity rating (0-100 scale) ([23]; 125 g ai/ha) | ABUTH phytotoxicity rating (0-100 scale) ([27]; 125 g ai/ha)
85: CASOB phytotoxicity rating (0-100 scale) ([10]; 62.5 g ai/ha)
40: CORN crop damage, phytotoxicity rating (0-100 scale) ([13]; 125 g ai/ha)
7: CORN crop damage, phytotoxicity rating (0-100 scale) ([17]; 125 g ai/ha)
60: SETVI phytotoxicity rating (0-100 scale) ([4]; 62.5 g ai/ha) | AMBEL phytotoxicity rating (0-100 scale) ([11]; 62.5 g ai/ha) | CASOB phytotoxicity rating (0-100 scale) ([25]; 125 g ai/ha)
90: CASOB phytotoxicity rating (0-100 scale) ([25]; 250 g ai/ha)
5: corn phytotoxicity rating (0-100 scale) at 14 days [16]
80: RICE crop damage, phytotoxicity rating (0-100 scale) ([14]; 250 g ai/ha)
55: RICE crop damage, phytotoxicity rating (0-100 scale) ([1]; 250 g ai/ha) | SOY crop damage, phytotoxicity rating (0-100 scale) ([2]; 250 g ai/ha) | DIGSA phytotoxicity rating (0-100 scale) ([7]; 250 g ai/ha) | RICE crop damage, phytotoxicity rating (0-100 scale) ([14]; 125 g ai/ha)
95: SETVI phytotoxicity rating (0-100 scale) [4, 28] | SETVI phytotoxicity rating (0-100 scale) [4, 29]
75: SORHA phytotoxicity rating (0-100 scale) ([3]; 125 g ai/ha) | SORHA phytotoxicity rating (0-100 scale) ([3]; 250 g ai/ha) | ECHCG phytotoxicity rating (0-100 scale) ([9]; 125 g ai/ha) | AMBEL phytotoxicity rating (0-100 scale) [11, 29] | AMBEL phytotoxicity rating (0-100 scale) ([26]; 125 g ai/ha)
8: CORN crop damage, phytotoxicity rating (0-100 scale) ([17]; 250 g ai/ha)
98: AMARE phytotoxicity rating (0-100 scale) ([5]; 31.3 g ai/ha)
100: AMARE phytotoxicity rating (0-100 scale) ([5]; 62.5 g ai/ha) | AMARE phytotoxicity rating (0-100 scale) [5, 28] | AMARE phytotoxicity rating (0-100 scale) [5, 29] | CHEAL phytotoxicity rating (0-100 scale) ([6]; 31.3 g ai/ha) | CHEAL phytotoxicity rating (0-100 scale) ([6]; 62.5 g ai/ha) | CHEAL phytotoxicity rating (0-100 scale) [6, 28] | CHEAL phytotoxicity rating (0-100 scale) [6, 29] | IPOHE phytotoxicity rating (0-100 scale) ([8]; 125 g ai/ha) | IPOHE phytotoxicity rating (0-100 scale) ([8]; 250 g ai/ha) | CASOB phytotoxicity rating (0-100 scale) [10, 29] | ABUTH phytotoxicity rating (0-100 scale) ([12]; 125 g ai/ha) | ABUTH phytotoxicity rating (0-100 scale) ([12]; 250 g ai/ha) | SORHA phytotoxicity rating (0-100 scale) ([18]; 125 g ai/ha) | SORHA phytotoxicity rating (0-100 scale) ([18]; 250 g ai/ha) | SETVI phytotoxicity rating (0-100 scale) ([19]; 125 g ai/ha) | SETVI phytotoxicity rating (0-100 scale) ([19]; 250 g ai/ha) | AMARE phytotoxicity rating (0-100 scale) ([20]; 125 g ai/ha) | AMARE phytotoxicity rating (0-100 scale) ([20]; 250 g ai/ha) | CHEAL phytotoxicity rating (0-100 scale) ([21]; 125 g ai/ha) | CHEAL phytotoxicity rating (0-100 scale) ([21]; 250 g ai/ha) | DIGSA phytotoxicity rating (0-100 scale) ([22]; 125 g ai/ha) | DIGSA phytotoxicity rating (0-100 scale) ([22]; 250 g ai/ha) | IPOHE phytotoxicity rating (0-100 scale) ([23]; 250 g ai/ha) | ECHCG phytotoxicity rating (0-100 scale) ([24]; 125 g ai/ha) | ECHCG phytotoxicity rating (0-100 scale) ([24]; 250 g ai/ha) | AMBEL phytotoxicity rating (0-100 scale) ([26]; 250 g ai/ha) | ABUTH phytotoxicity rating (0-100 scale) ([27]; 250 g ai/ha)
65: SOY crop damage, phytotoxicity rating (0-100 scale) ([2]; 125 g ai/ha) | ECHCG phytotoxicity rating (0-100 scale) ([9]; 250 g ai/ha) | AMBEL phytotoxicity rating (0-100 scale) [11, 28] | SOY crop damage, phytotoxicity rating (0-100 scale) ([15]; 250 g ai/ha)
50: RICE crop damage, phytotoxicity rating (0-100 scale) ([1]; 125 g ai/ha) | SETVI phytotoxicity rating (0-100 scale) ([4]; 31.3 g ai/ha) | DIGSA phytotoxicity rating (0-100 scale) ([7]; 125 g ai/ha) | AMBEL phytotoxicity rating (0-100 scale) ([11]; 31.3 g ai/ha) | CORN crop damage, phytotoxicity rating (0-100 scale) ([13]; 250 g ai/ha)
35: CASOB phytotoxicity rating (0-100 scale) ([10]; 31.3 g ai/ha)

Reference: patent US6613718B2, “Aryl ether derivatives and processes for their preparation and herbicidal and desiccant compositions containing them” (Ishihara Sangyo Kaisha, Ltd., priority 2001, dated 2003)
